# Entries after “also recorded” stand apart in the source; their conditions may differ.
# Key:
# [1] = tested on: Mapk14f/f and Mapk14Δli* mice; assay: DEN-induced hepatocyte proliferation (Ki67) in Mapk14-deficient mice; assay type: in vivo, mouse; details: 20 mg/kg i.p. before DEN, 48 h
# [2] = tested on: female Sprague-Dawley rats; assay: Cyclophosphamide (CYP)-induced acute cystitis, intravesical treatment; assay type: in vivo, rat; details: 24 h after CYP
# [3] = Stability of stock and diluted solutions; assay type: physicochemical
# Wistar rats [4] = assay: Renal ischemia/reperfusion, 40 min clamping; assay type: in vivo, rat; details: 2 mg/kg i.v. 1 h after clamping; 24 h
# [5] = tested on: recombinant JNK1, JNK2, JNK3; assay: Solid-phase kinase assay: JNK-mediated phosphorylation of c-Jun, ATF2, Elk1; assay type: biochemical; details: GST-Jun (aa 1-73), 0-250 μM
# [6] = tested on: Varicella Zoster Virus (VZV); assay: VZV-BAC-Luc replication (luciferase) in HFFs; assay type: cell-based; details: 24 h
# Sprague-Dawley rats = assay: Bilateral renal ischemia reperfusion, histology; assay type: in vivo, rat
# C57BL/6 mice = assay: Bleomycin-induced lung fibrosis, day 10; assay type: in vivo, mouse; details: for lymphocyte recruitment and total cell number in BAL: 3x in 10 days; for decrease of inflammatory cell accumulation, fibrotic areas, loss of lung architecture (histology): day 10
# [7] = Ocular MTD study, subconjunctival; assay type: in vivo, rat
# db/db mice = assay: db/db mouse model of type 2 diabetes; assay type: in vivo
# Jurkat cells = assay: PMA & ionomycin-induced cytokine production; assay type: cell-based; details: Fig. 27 D-F
# TC-3 cells = assay: Cellular import of fluorescein-labelled TAT and TAT-IB1(s) peptides; assay type: cell-based
# Wistar rats [8] = assay: PAN-induced nephropathy, frequency of administration; assay type: in vivo, rat
# [9] = tested on: Huh7 tumours in nude mice; assay: Huh7 human liver cancer xenograft; assay type: in vivo, mouse; details: 5 mg/kg i.p. twice weekly, 4 weeks
# [10] = tested on: female Sprague-Dawley rats; assay: CYP-induced acute cystitis, intravenous treatment, visceral pain; assay type: in vivo, rat; details: 2 mg/kg i.v.
# [11] = Phase II trial, post-surgery intraocular inflammation, vs dexamethasone eye drops; assay type: in vivo, human
# [12] = Distribution of C14-labelled peptide, 72 h after s.c., i.v., i.p.; assay type: in vivo, mouse; details: 1 mg/kg, Fig. 25
# [13] = tested on: Hep G2 tumours in SWISS nude mice; assay: Orthotopic Hep G2 human liver carcinoma, dose/response; assay type: in vivo, mouse
substance,measurement,setting,value
NH2-DQSRPVQPFLNLTTPRKPRPPRRRQRRKKRG-COOH (H-DQSRPVQPFLNLTTPRKPRPPRRRQRRKKRG-OH; also: D-amino acids (positions not given here)) [XG-102],hyperproliferation of Mapk14-/- hepatocytes (Ki67),[1],되돌린다
same,AUC 1-8 g (allodynia) vs vehicle,[2]; 50 mg/mL i.ves.,현저하게 감소되었다
same,AUC 8-60 g (hyperalgesia) vs vehicle,[2]; 50 mg/mL i.ves.,감소되었다
same,haemorrhage score,[2]; 50 mg/mL i.ves.,통계적으로 현저한 것에 이르지는 않았다
same,nociceptive scores vs vehicle,[2]; 50 mg/mL i.ves.,현저하게 감소시켰다
same,urinary bladder wall thickness,[2]; 50 mg/mL i.ves.,현저하게 감소되었다
same,nociceptive threshold vs vehicle,"[2]; 50 mg/mL, 500 μL i.ves.",현저하게 증가하였다
same,stability of diluted formulations for animal dosing,[3]; 2-4°C,24 시간
same,stability of stock solution (1 mM),[3]; about -80°C,3 개월
same,stability of stock solution (10 mM in water),[3]; about -80°C,≥ 100 일
same,stability of diluted formulations for animal dosing,[3]; room temperature,24 시간
same,stability in saline,"[3]; room temperature, 10 μg/ml - 50 mg/ml",8 시간
same,serum creatinine vs untreated ischemic rats,Wistar rats [4],보다 낮은 혈청 크레아티닌을 보였다
same,fold less efficient than L-TAT-IB1(s) in decreasing JNK-mediated c-Jun phosphorylation,[5],10-20 배
same,lowest tested concentration preventing VZV replication,[6],0.25 µM
same,mean tubular epithelial degeneration/necrosis score (0-4),"Sprague-Dawley rats; 2 mg/kg i.v. 20 min after reperfusion, 24 h, IR/vehicle 3.45 ± 0.52",2.67 ± 0.65
same,animals with degeneration/necrosis score 2,"Sprague-Dawley rats; 2 mg/kg i.v., IR/vehicle 0/11",5/12
same,mean basophilic tubules score (0-4),"Sprague-Dawley rats; 2 mg/kg i.v., IR/vehicle 1.36 ± 0.67",1.33 ± 0.65
same,tubular cast score (0-4),"Sprague-Dawley rats; 2 mg/kg i.v., IR/vehicle 3.00 ± 0.00",2.50 ± 0.52
same,animals with degeneration/necrosis score 4,"Sprague-Dawley rats; 2 mg/kg i.v., IR/vehicle 5/11",1/12
same,total tubular score,"Sprague-Dawley rats; 2 mg/kg i.v., IR/vehicle 7.82 ± 0.98",6.50 ± 0.80
same,lymphocyte recruitment and total cell number in BAL,C57BL/6 mice; 0.001 mg/kg s.c.,현저하게 감소시켰다
same,"decrease of inflammatory cell accumulation, fibrotic areas, loss of lung architecture (histology)",C57BL/6 mice; 0.001 mg/kg,관찰되었으나
same,lymphocyte recruitment and total cell number in BAL,C57BL/6 mice; 0.1 mg/kg s.c.,효과가 없었다
same,"decrease of inflammatory cell accumulation, fibrotic areas, loss of lung architecture (histology)",C57BL/6 mice; 0.1 mg/kg,관찰되지 않았다
same,NOAEL,[7],~20 µg
same,effect on fasting blood glucose,db/db mice; 1 mg/kg s.c. daily 28 days,효과가 관찰되지 않았다
same,effect on body weight,"db/db mice; 1 mg/kg, 28 days",효과가 관찰되지 않았다
same,fasting blood glucose plateau,"db/db mice; 10 mg/kg s.c. daily 21 days, persisted to day 111, p<0.001",~5 mmol/L
same,"brain, spleen, heart weight","db/db mice; 10 mg/kg, day 111",현저한 효과가 관찰되지 않았다
same,epididymal (p<0.05) and retroperitoneal (p<0.01) fat mass,"db/db mice; 10 mg/kg, day 111",현저한 감소를 관찰했다
same,kidney (p<0.05) and liver (p<0.01) mass,"db/db mice; 10 mg/kg, day 111",현저한 감소가 관찰되었다
same,"plasma insulin, MCP-1, IL-6, tPAI-1, TNF","db/db mice; 10 mg/kg, days 57, 77, 108",현저한 효과가 발견되지 않았으며
same,plasma resistin,"db/db mice; 10 mg/kg, days 77 and 108",현저하게 높았다
same,"24 h food and water intake, urine and faeces production","db/db mice; 10 mg/kg, metabolic cages",현저한 효과는 관찰되지 않았다
same,body weight gain,"db/db mice; 10 mg/kg, from day 28 to 111",명확하고 현저한 예방
same,injection-site finding in subcutaneous tissue,"db/db mice; high dose, after about 2 weeks of dosing, progressed to open wounds, healed after end of dosing",결절 섬유화가 발견되었고
same,"PMA & ionomycin-induced IFNg, IL-6, IL-2 production",Jurkat cells,사이토카인 방출을 억제한다
same,time to enter cells,TC-3 cells; 1 μM labelled peptide,< 5 분
same,stability inside cells,TC-3 cells; time course,극도로 안정하다
same,glomerular injury score (GIS),"Wistar rats [8]; 4 mg/kg i.v. x1 (d21), day 49",1.53 ± 0.05
same,glomerular injury score (GIS),"Wistar rats [8]; 4 mg/kg i.v. x1 (d21), day 77, PAN/vehicle 1.39 ± 0.10",0.82 ± 0.04
same,percentage of injured glomeruli,"Wistar rats [8]; 4 mg/kg i.v. x1, day 77 (PAN/vehicle 91%)",69%
same,glomerular injury score (GIS),"Wistar rats [8]; 4 mg/kg i.v. x2 (d21, d35), day 49, P<0.01",1.26 ± 0.06
same,glomerular injury score (GIS),"Wistar rats [8]; 4 mg/kg i.v. x4 (weekly from d21), day 49, PAN/vehicle 1.50 ± 0.06",0.94 ± 0.05
same,percentage of injured glomeruli,"Wistar rats [8]; 4 mg/kg i.v. x4, day 49",76.9%
same,mean % glomeruli with grade 1,"Wistar rats [8]; 4 mg/kg i.v. x4, day 49 (PAN/vehicle 37%)",61%
same,mean % glomeruli with grade 2,"Wistar rats [8]; 4 mg/kg i.v. x4, day 49 (PAN/vehicle 46%)",15%
same,tumour growth,[9],종양 성장을 현저하게 감소시켰다
same,nociceptive threshold vs vehicle,"[10]; 24 h after CYP, p<0.01",현저하게 증가하였다
same,AUC 1-8 g (allodynia) vs vehicle,[10]; p<0.001,현저하게 감소되었다
same,AUC 8-60 g (hyperalgesia) vs vehicle,[10]; p<0.001,현저하게 감소되었다
same,nociceptive scores vs vehicle,[10]; p<0.001,현저하게 감소시켰다
same,"AEs leading to interruption of study treatment, events (%)",[11]; 90 μg,11 (14.1%)
same,"mild AEs, number of events (% of reported events)",[11]; 90 μg,55 (70.5%)
same,"moderate AEs, number of events (%)",[11]; 90 μg,6 (7.7%)
same,patients with an AE within 24 h of administration,[11]; 90 μg,34%
same,patients with intraocular pressure increased,[11]; 90 μg,23%
same,"severe AEs, number of events (%)",[11]; 90 μg,17 (21.7%)
same,"SOC eye disorders, patients","[11]; 90 μg (26 patients), p=0.025 vs dexamethasone",55%
same,"premature withdrawal of study eye drops, patients (%)",[11]; 90 μg (N=47),10 (21.3%)
same,overall tolerability,[11]; 90 μg and 900 μg,내약성이 우수하였다
same,"anterior chamber cell grade vs dexamethasone, days 7 and 14","[11]; 90 μg and 900 μg, FAS",통계적으로 현저한 차이가 없었다
same,"anterior chamber flare grade vs dexamethasone, days 7, 14, 28","[11]; 90 μg and 900 μg, FAS",통계적으로 현저한 차이가 없었다
same,"difference in anterior chamber cell grade vs dexamethasone, day 28","[11]; 90 μg single subconj. inj., PP, 95% CI -0.214-0.385, p=0.003",0.086
same,patients with an adverse event,"[11]; 90 μg, 31/47",66%
same,"difference in anterior chamber cell grade vs dexamethasone, day 28","[11]; 90 μg, FAS, 95% CI -0.215-0.321, p<0.001",0.053
same,odds of cleared ocular inflammation vs usual treatment group,"[11]; 90 μg, FAS, day 7",0.52
same,odds of cleared ocular inflammation vs usual treatment group,"[11]; 90 μg, FAS, day 14",0.85
same,odds of cleared ocular inflammation vs usual treatment group,"[11]; 90 μg, FAS, day 28",1.24
same,odds of cleared ocular inflammation vs usual treatment group,"[11]; 90 μg, PP, day 7",0.56
same,odds of cleared ocular inflammation vs usual treatment group,"[11]; 90 μg, PP, day 14",0.97
same,odds of cleared ocular inflammation vs usual treatment group,"[11]; 90 μg, PP, day 28",1.45
same,patients with rescue medication introduced,"[11]; 90 μg, p=0.013 vs dexamethasone",21.3%
same,"AEs leading to interruption of study treatment, events (%)",[11]; 900 μg,8 (11.6%)
same,"mild AEs, number of events (%)",[11]; 900 μg,49 (71.0%)
same,"moderate AEs, number of events (%)",[11]; 900 μg,12 (17.4%)
same,patients with an AE within 24 h of administration,[11]; 900 μg,27%
same,patients with intraocular pressure increased,[11]; 900 μg,10%
same,"severe AEs, number of events (%)",[11]; 900 μg,8 (11.6%)
same,"SOC eye disorders, patients",[11]; 900 μg (24 patients),50%
same,"premature withdrawal of study eye drops, patients (%)",[11]; 900 μg (N=48),8 (16.7%)
same,"difference in anterior chamber cell grade vs dexamethasone, day 28","[11]; 900 μg single subconj. inj., PP, 95% CI -0.350-0.242, non-inferior p<0.001",-0.054
same,patients with an adverse event,"[11]; 900 μg, 32/48",67%
same,"difference in anterior chamber cell grade vs dexamethasone, day 28","[11]; 900 μg, FAS, 95% CI -0.301-0.238, p<0.001",-0.032
same,odds of cleared ocular inflammation vs usual treatment group,"[11]; 900 μg, FAS, day 7",0.76
same,odds of cleared ocular inflammation vs usual treatment group,"[11]; 900 μg, FAS, day 14",1.25
same,odds of cleared ocular inflammation vs usual treatment group,"[11]; 900 μg, FAS, day 28",1.13
same,odds of cleared ocular inflammation vs usual treatment group,"[11]; 900 μg, PP, day 7",0.84
same,odds of cleared ocular inflammation vs usual treatment group,"[11]; 900 μg, PP, day 14",1.12
same,odds of cleared ocular inflammation vs usual treatment group,"[11]; 900 μg, PP, day 28",1.26
same,patients with rescue medication introduced,"[11]; 900 μg, not significant vs dexamethasone",14.6%
same,tissue accumulation,[12],"간, 비장 및 골수 대부분에서 XG-102 펩타이드의 축적"
same,T/C,[13]; 0.1 mg/kg,123%
same,"tumour mass in liver, per mouse sacrificed at D171 (microscopy)","[13]; 0.1 mg/kg, 2 mice",간에 종양 (1.3cm); also recorded: 검출된 종양 없음
same,mean survival time (as headed),"[13]; 0.1 mg/kg/inj i.v. Q4Dx4, vehicle 86",105 days
same,T/C,[13]; 1 mg/kg,161%
same,"tumour mass in liver, per mouse sacrificed at D171 (microscopy)","[13]; 1 mg/kg, 3 mice (2 without tumour)",검출된 종양 없음; also recorded: 간에 종양 (1.9cm)
same,mean survival time (as headed),[13]; 1 mg/kg/inj i.v. Q4Dx4,138 days
same,T/C,[13]; 5 mg/kg,137%
same,"tumour mass in liver, per mouse sacrificed at D171 (microscopy)","[13]; 5 mg/kg, 3 mice",검출된 종양 없음 검출된 종양 없음 검출된 종양 없음
same,mean survival time (as headed),[13]; 5 mg/kg/inj i.v. Q4Dx4,118 days
same,tolerance (body weight),[13]; 0.1-5 mg/kg,내약성이 우수함

# Source: patent KR20170021349A, “다양한 질병의 치료를 위한 jnk 신호 전달 경로의 세포 투과성 펩타이드 억제자의 새로운 용도” (자이겐 인플라메이션 리미티드, priority 2014, dated 2017)
